Assay results from US20130143942A1, “METHODS OF CONTROLLING NEONICOTINOID RESISTANT APHIDS” (SYNGENTA CROP PROTECTION LLC, priority 2010, published 2013).

Assays:
[1] = system: neonicotinoid insecticide susceptible strain 4106A; assay: leaf disc spray bioassay, aphid mortality 72 hours after treatment, susceptible strain; format: in vivo; conditions: mixed age aphids on chinese cabbage leaf discs, sprayed in Potter Tower, susceptible strain 4106A (Rothamsted Research)
Experimental: (§1) The following bioassay methodology was utilized to generate the data included in the table:
(§2) 5 cm leaf discs were taken from fully expanded chinese cabbage leaves and placed with the underside facing upwards onto water agar in 5 cm Petri dishes. The leaf discs are infested with between 30 and 40 mixed age aphids 24 hours prior to insecticide treatment. The leaf surface is sprayed with the appropriate test solutions in a Burkhard Potter Tower at an approximate water volume of 450 l/ha. Test containers are stored at 21° C., 60% RH and 16:8 light/dark. Aphids were assessed for mortality 72 hours after treatment.

[2] = system: neonicotinoid insecticide resistant aphid strain; assay: leaf disc spray bioassay, aphid mortality 72 hours after treatment, resistant strain; format: in vivo; conditions: mixed age aphids on chinese cabbage leaf discs, sprayed in Potter Tower, resistant strain collected from peach orchard, Avignon region, 2009
Experimental: as §1, §2

CCOC(=O)OC1=C(c2cc(C)ccc2C)C(=O)N[C@]12CC[C@@H](OC)CC2 [sprirotetramat, cis-3-(2,5-dimethylphenyl)-8-methoxy-2-oxo-1-azaspiro[4.5]dec-3-en-4-yl ethyl carbonate]
LC50 with 95% confidence limit, susceptible strain [1]: 0.88 (0.60-1.22) ppm
LC50 with 95% confidence limit, resistant strain [2]: 1.58 (1.14-2.23) ppm
